The values that follow come from patent publication US8809539B2, “Dicarboxylic acid derivatives as S1P1 receptor agonists” (Bioprojet, priority 2007, dated 2014).

The target of one experiment is T1, Edg1 (S1P1 receptor) (Homo sapiens, UniProt P21453).
T1 construct: expressed in transfected cells; host or cells: HEK 293 or CHOK1 (membranes)
In words: GTP-γ-35S binding, agonist activity at Edg1 (S1P1). To be noted: membranes of transfected HEK 293 or CHOK1 cells, [35S]GTP-γ-S; read-out: In-Vitro potency EC50 (nM) Edg1. In kind it is biochemical. The text has this: Human S1P1-5 receptor subtypes were stably expressed in high levels in HEK 293 or CHOK1 cells following transfection with corresponding plasmid constructs. Although the native cells somewhat respond to S1P, the level of expression and responsiveness of the antibiotic-resistant transfected cell lines that were selected is much higher.
When cultivated cells reached 80% confluence, they were collected and, after lysis, cell membranes were collected by centrifugation and washed in buffer containing antiproteases.
GTP-γ-^35S binding was performed using ˜5 μg protein of cell membranes suspended in 50 mM tris-HCl pH 7.5 containing 10 mM MgCl2, 100 mM NaCl and 10 μM GDP. The radioligand was 0.025 nM [^35S] GTP-γ-S and non specific binding determined in the presence of 10 μM non-radioactive GTP-γ-S. S1P and receptor agonists enhance the specific binding whereas inverse agonists reduce it. The maximal stimulation elicited by S1P was taken as a reference to define full or partial agonism and calculate the intrinsic activity (i.a.) of compounds.
In general terms: Binding of GTPγS marks nucleotide exchange on a G protein.

Experiment [1] has as its system blood lymphocytes (S1P1 receptors in vivo). Briefly: Lymphopenia in vivo after oral administration. Conditions: Swiss mice; for ED50: Mus musculus, Lymphocyte, at 24 h. As to the method:
Lymphopenia was assessed in vivo. Experiments were done in Swiss mice strain (n=5 per condition). Compounds were administered orally in suspension in methyl-cellulose 1% from 1 h 30 until 48 hours before the experiments. Blood was taken on anesthetized animal (4% isoflurane) and samples collected in EDTA-containing vacuum tubes. After 5 minutes stirring, cells were counted using ABC vet hemocytometer (Scil vet animal Care)

A further experiment has as its target T2, Edg3 (S1P3 receptor) (Homo sapiens, UniProt Q99500).
T2 construct: expressed in transfected cells; host or cells: HEK 293 or CHOK1 (membranes)
In words: GTP-γ-35S binding, agonist activity at Edg3 (S1P3). In kind it is biochemical. Conditions: membranes of transfected HEK 293 or CHOK1 cells, [35S]GTP-γ-S; read-out: In-Vitro potency EC50 (nM) Edg3. The text has this: (§1) Human S1P1-5 receptor subtypes were stably expressed in high levels in HEK 293 or CHOK1 cells following transfection with corresponding plasmid constructs. Although the native cells somewhat respond to S1P, the level of expression and responsiveness of the antibiotic-resistant transfected cell lines that were selected is much higher. When cultivated cells reached 80% confluence, they were collected and, after lysis, cell membranes were collected by centrifugation and washed in buffer containing antiproteases. GTP-γ-^35S binding was performed using ˜5 μg protein of cell membranes suspended in 50 mM tris-HCl pH 7.5 containing 10 mM MgCl2, 100 mM NaCl and 10 μM GDP. The radioligand was 0.025 nM [^35S] GTP-γ-S and non specific binding determined in the presence of 10 μM non-radioactive GTP-γ-S. S1P and receptor agonists enhance the specific binding whereas inverse agonists reduce it. The maximal stimulation elicited by S1P was taken as a reference to define full or partial agonism and calculate the intrinsic activity (i.a.) of compounds.

The target in another experiment is T3, Edg5 (Homo sapiens, UniProt O95136).
T3 construct: expressed in transfected cells; host or cells: HEK 293 or CHOK1 (membranes)
T3 sequence (O95136 whole entry): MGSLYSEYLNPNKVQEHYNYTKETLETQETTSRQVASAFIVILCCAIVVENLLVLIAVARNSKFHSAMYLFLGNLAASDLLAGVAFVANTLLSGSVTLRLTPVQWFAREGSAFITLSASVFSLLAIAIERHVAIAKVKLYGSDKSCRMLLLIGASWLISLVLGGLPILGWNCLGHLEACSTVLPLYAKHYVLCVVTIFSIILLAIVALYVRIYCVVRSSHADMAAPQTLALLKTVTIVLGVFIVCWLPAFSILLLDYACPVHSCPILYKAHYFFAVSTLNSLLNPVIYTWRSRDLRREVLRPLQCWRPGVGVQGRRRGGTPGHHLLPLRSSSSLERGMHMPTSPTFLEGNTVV
In words: GTP-γ-35S binding, agonist activity at Edg5. Conditions: membranes of transfected HEK 293 or CHOK1 cells, [35S]GTP-γ-S; read-out: In-Vitro potency EC50 (nM) Edg5. Format: biochemical.
From the text: as §1

The structures appear in SMILES notation.

T1 sequence (P21453 whole entry): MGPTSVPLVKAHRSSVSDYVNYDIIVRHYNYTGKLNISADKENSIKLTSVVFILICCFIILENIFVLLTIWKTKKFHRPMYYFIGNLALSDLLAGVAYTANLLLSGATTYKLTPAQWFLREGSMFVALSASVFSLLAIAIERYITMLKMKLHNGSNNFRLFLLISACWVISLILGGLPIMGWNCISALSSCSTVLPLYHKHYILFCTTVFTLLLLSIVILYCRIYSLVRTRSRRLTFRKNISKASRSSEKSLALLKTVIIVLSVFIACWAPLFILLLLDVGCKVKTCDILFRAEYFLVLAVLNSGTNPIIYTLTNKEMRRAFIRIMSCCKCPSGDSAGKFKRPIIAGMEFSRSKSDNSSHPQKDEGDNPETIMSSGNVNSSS
T2 sequence (Q99500 whole entry): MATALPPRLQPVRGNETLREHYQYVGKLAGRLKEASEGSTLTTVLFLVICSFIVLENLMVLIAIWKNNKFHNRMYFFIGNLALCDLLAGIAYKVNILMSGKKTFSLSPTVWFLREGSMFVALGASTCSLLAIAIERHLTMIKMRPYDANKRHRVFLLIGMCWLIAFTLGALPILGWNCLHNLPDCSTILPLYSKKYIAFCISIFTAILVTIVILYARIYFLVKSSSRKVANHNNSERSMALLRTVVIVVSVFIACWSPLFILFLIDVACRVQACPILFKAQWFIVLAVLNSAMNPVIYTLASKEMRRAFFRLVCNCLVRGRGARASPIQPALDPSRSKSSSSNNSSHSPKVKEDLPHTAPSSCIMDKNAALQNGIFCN

As usually defined, the EC50 is the concentration at which the effect is half-maximal. As for `COC(=O)C1(C(=O)O)CC(N(C)Cc2ccc(-c3noc(-c4ccc(CC(C)C)cc4)n3)cc2)C1` (single isomer, unassigned) [Example 54], the EC50 at Edg1 (S1P1 receptor) was found to be 11.8 nM.
The ED50 is the dose at which the effect has come halfway, by size or by number of responders. A higher ED50 goes with weaker potency. In experiment [1], `COC(=O)C1(C(=O)O)CCN(Cc2ccc(-c3noc(-c4ccc(CC(C)C)cc4)n3)cc2)CC1` [Example 8] registered an ED50 of 3.5 mg/kg.
With `O=C(O)C1(C(=O)O)CCN(Cc2ccc(-c3noc(-c4ccc(-c5ccccc5)cc4)n3)cc2)CC1` [Example 15], the concentration for a half-maximal effect (EC50) at Edg3 (S1P3 receptor) was above 1000 nM; on Edg5 it was above 1000 nM; on Edg1 (S1P1 receptor) it was 0.7 nM.
On to `CO/N=C(/c1ccco1)c1nc(-c2ccc(CN3CCC(C(=O)O)(C(=O)O)CC3)cc2)no1` [Example 22], for which the concentration for a half-maximal effect (EC50) is above 1000 nM at Edg3 (S1P3 receptor), above 1000 nM at Edg5 and 2.2 nM on Edg1 (S1P1 receptor).
In the case of `C=C(C)[C@@H]1CC=C(c2nc(-c3ccc(CN4CCC(C(=O)O)(C(=O)O)CC4)cc3)no2)CC1` [Example 25], the EC50 on Edg1 (S1P1 receptor) is 1.7 nM.
In the case of `Cl.O=C(O)C1(C(=O)O)CC(NCc2ccc(-c3noc(-c4ccc(-c5ccccc5)c(F)c4)n3)cc2)C1` [Example 49], the “% lymphopenia” value in experiment [1] (at 10 mg/kg, after 24 h) is recorded as “at 10 mg/kg 86% lymphopenia after 24 h”.
In the case of `CC(C)(C)C(=O)COC(=O)C1(C(=O)O)CCN(Cc2ccc(-c3noc(-c4ccc(-c5ccccc5)c(F)c4)n3)cc2)CC1` [Example 62, 1-{4-[5-(2-fluorobiphenyl-4-yl)[1,2,4]oxadiazol-3-yl]benzyl}-piperidine-4,4-dicarboxylic acid (3,3-dimethyl-2-oxobutyl)ester], the 50% effect level in experiment [1] (ED50) was put at a dose of 0.03 mg/kg. On Edg1 (S1P1 receptor), the EC50 is 6.3 nM.
